# Experimental data from ChEMBL document CHEMBL1147055, “Noxious compounds activate TRPA1 ion channels through covalent modification of cysteines” (Nature, 2007).
# pEC50: −log10 of the molar value. The source made the active and inactive calls. The calls are words filed in the database; no cut-off is given here.
# Assays:
# [1] = target: Transient receptor potential cation channel subfamily A member 1 (Homo sapiens, UniProt O75762); experiment: Activation of TRPA1
# [2] = target: Transient receptor potential cation channel subfamily A member 1 (Mus musculus) (UniProt Q8BLA8); experiment: Activation of mouse TRPA1 expressed in HEK293T cells at 100 uM assessed as activation of cation conductance by electrophysiology; assay type: cell-based; settings: HEK-293T
# [3] = target: Transient receptor potential cation channel subfamily A member 1 (Mus musculus) (UniProt Q8BLA8); experiment: Activation of mouse TRPA1 expressed in CHO cells assessed as increase in intracellular calcium level; assay type: cell-based
# [4] = target: Transient receptor potential cation channel subfamily A member 1 (Mus musculus) (UniProt Q8BLA8); experiment: Reversal of activation of mouse TRPA1 expressed in HEK293T cells at 400 uM in presence of dithiothreitol by electrophysiology; assay type: cell-based; settings: HEK-293T
# [5] = test system: Transient receptor potential cation channel subfamily A member 1 (Mus musculus), Q8BLA8 [C415S]; experiment: Activation of mouse TRPA1 C415S mutant expressed in CHO cells at 100 uM by calcium imaging FLIPR assay; assay type: cell-based
# [6] = test system: Transient receptor potential cation channel subfamily A member 1 (Mus musculus), Q8BLA8 [C422S]; experiment: Activation of mouse TRPA1 C422S mutant expressed in CHO cells at 100 uM by calcium imaging FLIPR assay; assay type: cell-based
# [7] = test system: Transient receptor potential cation channel subfamily A member 1 (Mus musculus), Q8BLA8 [C622S]; experiment: Activation of mouse TRPA1 C622S mutant expressed in CHO cells at 100 uM by calcium imaging FLIPR assay; assay type: cell-based
# [8] = target: Transient receptor potential cation channel subfamily A member 1 (Mus musculus) (UniProt Q8BLA8); experiment: Activation of mouse TRPA1 expressed in CHO cells at 100 uM by calcium imaging FLIPR assay; assay type: cell-based
# [9] = target: Transient receptor potential cation channel subfamily A member 1 (Mus musculus) (UniProt Q8BLA8); experiment: Activation of mouse TRPA1 expressed in HEK293T cells at 50 uM assessed as activation of cation conductance by electrophysiology; assay type: cell-based; settings: HEK-293T
# [10] = target: Transient receptor potential cation channel subfamily A member 1 (Mus musculus) (UniProt Q8BLA8); experiment: Activation of mouse TRPA1 expressed in HEK293T cells at 50 uM in presence of dithiothreitol by electrophysiology; assay type: cell-based; settings: HEK-293T
# [11] = target: Transient receptor potential cation channel subfamily A member 1 (Mus musculus) (UniProt Q8BLA8); experiment: Binding affinity to mouse TRPA1 expressed in HEK293T cells at 100 uM assessed as covalent protein modification; assay type: cell-based; settings: HEK-293T
# [12] = target: Transient receptor potential cation channel subfamily A member 1 (Mus musculus) (UniProt Q8BLA8); experiment: Activation of mouse TRPA1 expressed in HEK293T cells at 30 uM assessed as activation of cation conductance by electrophysiology; assay type: cell-based; settings: HEK-293T
# Chain of Transient receptor potential cation channel subfamily A member 1 (O75762 whole entry): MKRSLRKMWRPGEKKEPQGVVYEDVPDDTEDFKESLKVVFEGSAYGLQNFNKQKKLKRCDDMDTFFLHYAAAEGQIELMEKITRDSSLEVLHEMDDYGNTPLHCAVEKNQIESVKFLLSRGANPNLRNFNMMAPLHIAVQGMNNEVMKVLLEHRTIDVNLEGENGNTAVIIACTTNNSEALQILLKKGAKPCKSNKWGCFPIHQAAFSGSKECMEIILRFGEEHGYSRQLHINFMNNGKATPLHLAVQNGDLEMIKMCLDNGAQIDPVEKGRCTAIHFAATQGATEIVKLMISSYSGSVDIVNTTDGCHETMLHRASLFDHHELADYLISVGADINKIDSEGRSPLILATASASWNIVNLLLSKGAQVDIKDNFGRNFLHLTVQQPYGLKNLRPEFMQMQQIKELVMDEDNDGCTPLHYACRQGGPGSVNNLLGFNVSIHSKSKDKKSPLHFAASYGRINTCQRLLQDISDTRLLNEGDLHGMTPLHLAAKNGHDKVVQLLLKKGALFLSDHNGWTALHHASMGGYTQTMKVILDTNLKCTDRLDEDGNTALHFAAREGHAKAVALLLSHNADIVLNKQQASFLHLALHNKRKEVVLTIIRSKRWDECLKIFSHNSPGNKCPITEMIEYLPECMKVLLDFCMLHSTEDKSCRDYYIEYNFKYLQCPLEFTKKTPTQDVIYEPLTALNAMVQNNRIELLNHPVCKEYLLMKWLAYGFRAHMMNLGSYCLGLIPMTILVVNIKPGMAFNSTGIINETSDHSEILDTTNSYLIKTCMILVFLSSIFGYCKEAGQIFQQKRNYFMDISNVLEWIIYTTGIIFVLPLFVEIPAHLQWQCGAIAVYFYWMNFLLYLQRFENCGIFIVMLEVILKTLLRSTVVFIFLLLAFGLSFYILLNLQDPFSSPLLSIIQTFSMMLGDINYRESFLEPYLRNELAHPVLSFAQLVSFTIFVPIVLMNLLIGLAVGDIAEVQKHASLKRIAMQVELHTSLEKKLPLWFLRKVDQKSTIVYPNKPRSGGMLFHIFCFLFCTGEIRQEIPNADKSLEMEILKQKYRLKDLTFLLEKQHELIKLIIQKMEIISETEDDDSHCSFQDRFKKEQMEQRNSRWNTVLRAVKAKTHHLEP
# Chain of Transient receptor potential cation channel subfamily A member 1 (Mus musculus) (Q8BLA8 whole entry): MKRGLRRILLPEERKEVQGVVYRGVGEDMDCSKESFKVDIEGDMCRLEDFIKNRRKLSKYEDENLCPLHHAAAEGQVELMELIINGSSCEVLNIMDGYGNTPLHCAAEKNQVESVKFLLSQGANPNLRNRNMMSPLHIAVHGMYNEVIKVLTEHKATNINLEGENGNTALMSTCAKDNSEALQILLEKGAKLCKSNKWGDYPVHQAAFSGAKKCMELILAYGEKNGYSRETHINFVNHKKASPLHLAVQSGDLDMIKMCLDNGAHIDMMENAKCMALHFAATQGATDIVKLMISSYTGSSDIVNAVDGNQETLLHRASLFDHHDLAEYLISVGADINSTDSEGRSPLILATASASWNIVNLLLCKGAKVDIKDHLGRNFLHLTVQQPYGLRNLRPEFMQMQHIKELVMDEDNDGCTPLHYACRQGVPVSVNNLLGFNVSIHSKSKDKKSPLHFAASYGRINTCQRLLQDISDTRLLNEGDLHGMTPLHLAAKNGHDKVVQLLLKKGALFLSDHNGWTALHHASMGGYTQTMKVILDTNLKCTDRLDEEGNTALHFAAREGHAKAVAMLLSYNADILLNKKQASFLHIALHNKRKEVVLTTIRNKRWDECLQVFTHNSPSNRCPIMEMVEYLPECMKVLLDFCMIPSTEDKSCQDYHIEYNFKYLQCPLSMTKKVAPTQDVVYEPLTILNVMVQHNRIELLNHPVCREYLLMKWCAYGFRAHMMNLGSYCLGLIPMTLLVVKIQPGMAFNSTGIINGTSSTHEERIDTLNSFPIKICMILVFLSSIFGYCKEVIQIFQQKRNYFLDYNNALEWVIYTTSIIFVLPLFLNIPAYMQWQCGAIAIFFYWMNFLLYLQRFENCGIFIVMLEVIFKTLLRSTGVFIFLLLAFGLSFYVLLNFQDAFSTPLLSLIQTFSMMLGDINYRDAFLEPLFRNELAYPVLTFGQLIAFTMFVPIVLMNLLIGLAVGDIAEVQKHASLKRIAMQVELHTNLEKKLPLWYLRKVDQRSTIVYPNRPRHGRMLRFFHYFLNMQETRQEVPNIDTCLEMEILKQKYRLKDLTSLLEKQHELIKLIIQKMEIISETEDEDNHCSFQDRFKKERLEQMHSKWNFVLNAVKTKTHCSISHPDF
# Chain of Transient receptor potential cation channel subfamily A member 1 (Mus musculus), Q8BLA8 [C422S] (Q8BLA8 whole entry C422S): as the sequence (Q8BLA8 whole entry) above, with C422S counted along it
# Chain of Transient receptor potential cation channel subfamily A member 1 (Mus musculus), Q8BLA8 [C415S] (Q8BLA8 whole entry C415S): as the sequence (Q8BLA8 whole entry) above, with C415S counted along it
# Chain of Transient receptor potential cation channel subfamily A member 1 (Mus musculus), Q8BLA8 [C622S] (Q8BLA8 whole entry C622S): as the sequence (Q8BLA8 whole entry) above, with C622S counted along it
smiles,measurement,setting,value
CC/C=C/C=O [PENTENAL],pEC50,[1],5.30
CC(=O)CC1(O)C(=O)N(C)c2ccccc21 (stereo not drawn),Activity,[1],inactive
O=C1NC(c2cccc([N+](=O)[O-])c2)=CCN1c1ccccc1O,Activity,[2],Active
CS(=O)(=O)SCCN,pEC50,[1],5.80
same,Activity,[3],Active
same,Activity,[4],Active
O=C/C=C/c1ccccc1,pEC50,[1],4.72
same,Activity,[5],inactive
same,Activity,[6],inactive
same,Activity,[7],inactive
CCC=O,Activity,[1],inactive
OC/C=C/c1ccccc1,Activity,[1],inactive
O=C1CCC(=O)N1O,Activity,[8],inactive
CC(=O)/C=C1/C(=O)N(C)c2ccccc21,pEC50,[1],6.10
same,Activity,[3],Active
same,Activity,[9],Active
same,Activity,[10],Active
C#CCN1C(=O)/C(=C/C(C)=O)c2ccccc21,pEC50,[1],7.00
same,Activity,[11],Active
C=CCN=C=S,Activity,[3],Active
same,Activity,[12],Active
C=CC=O [ACROLEIN],pEC50,[1],5.30
C#CCN=C=S [PROPARGYL ISOTHIOCYANATE],pEC50,[1],4.74
same,Activity,[11],Active
C#CCCCCNC(=O)CI [IODOACETAMIDE ALKYNE],pEC50,[1],3.87
same,Activity,[11],Active
NC(=O)CI [IODOACETAMIDE],pEC50,[1],3.45
same,Activity,[3],Active
